The source of these data is ChEMBL document CHEMBL6153133, “Discovery of Diphenyl Ether Derivatives as Novel BKCa Channel Activators: Structure-Activity Relationship, Cryo-EM Complex Structures, and In Vivo Animal Studies” (J Med Chem, 2025).

pEC50: −log10 of the molar value. The source made the active and inactive calls.

Data set [1] relates to Oocyte. In words: Activation of rat BKca channel extracted from Xenopus laevis Oocytes assessed as left shift in G-V curve at 5 uM by patch-clamp electrophysiology recordings. The data set is classed as cell-based. The following applies: filed as opener. A general note: Patch clamp records ionic current or voltage across a cell membrane.
Data set [2] has as its system Calcium-activated potassium channel subunit alpha-1 (Homo sapiens), Q12791 [UNDEFINED MUTATION]. In words: Activation of hyperactive human BKca channel G803D/N806K mutant transfected in human AD-293 cells assessed as maximum relative fluorescence value at 1 uM preincubated for 15 mins followed by Tl+ stimulus buffer addition and measured after 80 sec by Flexstation3 multimode microplate reader analysis relative to control. Conditions: filed as opener, time 980.0 sec. The format is cell-based.

The test system is the same in data set [3]. In words: Activation of hyperactive human BKca channel G803D/N806K mutant transfected in human AD-293 cells assessed as fold change in maximum relative fluorescence value at 5 uM preincubated for 15 mins followed by Tl+ stimulus buffer addition and measured after 80 sec by Flexstation3 multimode microplate reader analysis. Conditions: filed as opener, time 980.0 sec. The data set is classed as cell-based.

Data set [4] has the same test system. Nature of the data set: Activation of hyperactive human BKca channel G803D/N806K mutant transfected in human AD-293 cells assessed as fold change in maximum relative fluorescence value at 5 uM preincubated for 15 mins followed by Tl+ stimulus buffer addition and measured after 80 sec by Flexstation3 multimode microplate reader analysis relative to 4-chloro-7-(trifluoromethyl)-10H-benzofuro[3,2-b]indole-1-carboxylic acid. Conditions: filed as opener, time 980.0 sec. The data set is classed as cell-based.

Data set [5] deals with Calcium-activated potassium channel subunit alpha-1 (Homo sapiens, UniProt Q12791, G803D/N806K). Nature of the data set: Activation of hyperactive human BKca channel G803D/N806K mutant transfected in human AD-293 cells incubated for 15 mins by Flexstation3 multimode microplate reader analysis. The format is cell-based.
For data set [6], the system named is Calcium-activated potassium channel subunit alpha-1 (Homo sapiens), Q12791 [UNDEFINED MUTATION]. In words: Activation of hyperactive human BKca channel G803D/N806K mutant transfected in human AD-293 cells assessed as maximum relative fluorescence value at 5 uM preincubated for 15 mins followed by Tl+ stimulus buffer addition and measured after 80 sec by Flexstation3 multimode microplate reader analysis relative to control. The data set is classed as cell-based. The following applies: time 980.0 sec.

Data set [7] in a line: Metabolic stability in rat liver microsomes assessed as parent compound remaining at 1 uM preincubated for 5 mins followed by NADPH addition and measured after 30 mins by LC-MS/MS analysis. The following applies: read-out: Stability. The data set is classed as ADME, Microsome.
Data set [8] can be described thus: Metabolic stability in human liver microsomes assessed as parent compound remaining at 1 uM preincubated for 5 mins followed by NADPH addition and measured after 30 mins by LC-MS/MS analysis. The format is ADME, Microsome. Conditions: read-out: Stability. For orientation: Liver microsomes are a subcellular fraction often used to study metabolism.
Data set [9] has as its system Calcium-activated potassium channel subunit alpha-1 (Homo sapiens), Q12791 [UNDEFINED MUTATION]. Nature of the data set: Activation of hyperactive human BKca channel G803D/N806K mutant transfected in human AD-293 cells at >2 uM preincubated for 15 mins followed by Tl+ stimulus buffer addition and measured after 80 sec in presence of paxilline by Flexstation3 multimode microplate reader analysis. The data set is classed as cell-based. The following applies: filed as opener, time 980.0 sec.

For data set [10], the system named is Rattus norvegicus. In words: Reversal of urinary incontinence in male spontaneous hypertensive rat model assessed as decrease in urine frequency at 10 to 50 mg/kg, po measured after 3 hrs. The format is functional, organism-based. The following applies: dose 10-50 mg/kg.
Data set [11] has as its system Oocyte. In words: Activation of […] rat BKca channel S259A mutant extracted from Xenopus laevis Oocytes assessed as negative shift in V1/2 at 5 uM at -100 mV holding potential by patch-clamp electrophysiology recordings. The format is cell-based. Conditions: filed as opener.
Data set [12] relates to Oocyte. Nature of the data set: Activation of […] rat BKca channel W22A mutant extracted from Xenopus laevis Oocytes assessed as negative shift in V1/2 at 5 uM at -100 mV holding potential by patch-clamp electrophysiology recordings. The format is cell-based. Conditions: filed as opener.
For data set [13], the system named is Oocyte. In words: Activation of […] rat BKca channel F266A mutant extracted from Xenopus laevis Oocytes assessed as negative shift in V1/2 at 5 uM at -100 mV holding potential by patch-clamp electrophysiology recordings. The format is cell-based. The following applies: filed as opener.
For data set [14], the system named is Oocyte. In words: Activation of wildtype rat BKca channel extracted from Xenopus laevis Oocytes assessed as negative shift in V1/2 at 5 uM at -100 mV holding potential by patch-clamp electrophysiology recordings. The data set is classed as cell-based. The following applies: filed as opener.
The target in data set [15] is T1, Calcium-activated potassium channel subunit alpha-1 (Homo sapiens, UniProt Q12791). In words: Activation of BKca channel (unknown origin) by cell-based fluorescence assay.
For data set [16], the target named is T1, Calcium-activated potassium channel subunit alpha-1. Nature of the data set: Activation of BKca channel (unknown origin) by cell based method.
For data set [17] the target is unchanged. In words: Activation of human KCa1.1 by patch clamp method.
Data set [18] is described as follows: AUClast in male Sprague-Dawley rat at 10 mg/kg, iv by LC-MS/MS analysis. The data set is classed as ADME, organism-based. Conditions: in vivo.
A short description of data set [19]: Half-life in male Sprague-Dawley rat at 10 mg/kg, iv by LC-MS/MS analysis. The format is ADME, organism-based. The following applies: in vivo.
Data set [20] has as its system Rattus norvegicus. Nature of the data set: Reversal of urinary incontinence in male spontaneous hypertensive rat model assessed as decrease in urine frequency at 0.1 mg/kg, ip measured after 3 hrs relative to control. The data set is classed as functional. Also noted: scale not given: the % may be the effect or the level left.
A short description of data set [21]: Oral bioavailability in male Sprague-Dawley rat at 10 mg/kg by LC-MS/MS analysis. The data set is classed as ADME, organism-based. The following applies: in vivo.
Data set [22] can be described thus: Half-life in male Sprague-Dawley rat at 10 mg/kg, po by LC-MS/MS analysis. The data set is classed as ADME, organism-based. Conditions: in vivo.
Data set [23] is described as follows: Volume of distribution at steady state in male Sprague-Dawley rat at 10 mg/kg, iv by LC-MS/MS analysis. The format is ADME, organism-based. The following applies: in vivo, read-out: Vdss.
The nature of data set [24]: Cmax in male Sprague-Dawley rat at 10 mg/kg, po by LC-MS/MS analysis. The data set is classed as ADME, organism-based. The following applies: in vivo.
Data set [25] has as its system Rattus norvegicus. In words: Reversal of urinary incontinence in male spontaneous hypertensive rat model assessed as decrease in urine frequency at 0.3 mg/kg, ip measured after 3 hrs relative to control. The data set is classed as functional. Also noted: scale not given: the % may be the effect or the level left.
Data set [26] can be described thus: AUClast in male Sprague-Dawley rat at 10 mg/kg, po by LC-MS/MS analysis. The format is ADME, organism-based. Conditions: in vivo.
Data set [27] is described as follows: Tmax in male Sprague-Dawley rat at 10 mg/kg, po by LC-MS/MS analysis. The format is ADME, organism-based. Conditions: in vivo.
Data set [28] relates to Rattus norvegicus. Nature of the data set: Reversal of urinary incontinence in male spontaneous hypertensive rat model assessed as decrease in total urine volume at 1 mg/kg, ip measured after 3 hrs relative to control. The data set is classed as functional. More on the design: scale not given: the % may be the effect or the level left.
A short description of data set [29]: Clearance in male Sprague-Dawley rat at 10 mg/kg, iv by LC-MS/MS analysis. The format is ADME, organism-based. The following applies: in vivo.

T1 sequence (Q12791 whole entry): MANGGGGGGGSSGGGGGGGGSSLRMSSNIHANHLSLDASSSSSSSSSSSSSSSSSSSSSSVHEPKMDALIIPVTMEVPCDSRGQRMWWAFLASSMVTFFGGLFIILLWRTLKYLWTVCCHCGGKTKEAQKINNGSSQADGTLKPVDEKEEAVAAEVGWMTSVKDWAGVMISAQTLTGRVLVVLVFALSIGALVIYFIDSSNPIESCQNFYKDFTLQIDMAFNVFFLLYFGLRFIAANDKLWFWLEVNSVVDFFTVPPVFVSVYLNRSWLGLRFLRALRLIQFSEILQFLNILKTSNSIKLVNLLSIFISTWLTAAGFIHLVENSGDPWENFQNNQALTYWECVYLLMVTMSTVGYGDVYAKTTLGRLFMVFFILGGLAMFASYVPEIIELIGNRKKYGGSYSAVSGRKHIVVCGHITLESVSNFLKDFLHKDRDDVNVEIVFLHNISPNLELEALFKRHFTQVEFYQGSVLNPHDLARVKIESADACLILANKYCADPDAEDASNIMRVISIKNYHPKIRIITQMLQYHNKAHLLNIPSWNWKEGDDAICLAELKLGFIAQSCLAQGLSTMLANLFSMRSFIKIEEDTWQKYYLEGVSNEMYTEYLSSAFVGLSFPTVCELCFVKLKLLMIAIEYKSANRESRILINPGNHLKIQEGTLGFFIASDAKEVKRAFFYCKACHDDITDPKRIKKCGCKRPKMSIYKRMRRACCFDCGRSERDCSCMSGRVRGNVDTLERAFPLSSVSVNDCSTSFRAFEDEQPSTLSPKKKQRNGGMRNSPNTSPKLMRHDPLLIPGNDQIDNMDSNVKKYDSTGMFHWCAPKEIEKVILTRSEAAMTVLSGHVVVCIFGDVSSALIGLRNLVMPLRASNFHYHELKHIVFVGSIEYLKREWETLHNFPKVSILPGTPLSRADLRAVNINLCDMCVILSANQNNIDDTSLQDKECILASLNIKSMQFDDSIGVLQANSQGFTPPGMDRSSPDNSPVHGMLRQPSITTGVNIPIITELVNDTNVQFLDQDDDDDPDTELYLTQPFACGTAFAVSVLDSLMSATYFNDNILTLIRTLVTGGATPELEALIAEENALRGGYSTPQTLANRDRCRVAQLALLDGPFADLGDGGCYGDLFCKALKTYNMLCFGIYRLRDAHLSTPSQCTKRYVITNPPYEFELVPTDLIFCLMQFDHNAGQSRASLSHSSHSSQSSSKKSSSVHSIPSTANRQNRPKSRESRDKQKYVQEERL
Sequence of Calcium-activated potassium channel subunit alpha-1 (Homo sapiens), Q12791 [UNDEFINED MUTATION] (Q12791 whole entry, looked up, stated change not applied): as the sequence (Q12791 whole entry) above
Sequence of Calcium-activated potassium channel subunit alpha-1 (Homo sapiens, UniProt Q12791, G803D/N806K) (Q12791 whole entry, looked up, stated change not applied): as the sequence (Q12791 whole entry) above

One may read the pEC50 as the EC50 on a negative log10 scale, so that one unit is a factor of ten. `Oc1ccc(Oc2c(F)c(F)c(Cl)c(F)c2F)c(O)c1`: the outcome in the data set with Oocyte [1] was Active. For the same compound, the Activity in [2] turned out to be 41.6%; in data set [6] (filed as opener), 100%. For the same compound, the fold change (FC) in data set [3] turned out to be 9.7; in data set [4], 2.5. Also, the pEC50 in [5] was 5.80. The remaining at 0.5 h, 1 µM was 35.9% in data set [7] and 83.6% in data set [8].
As to `Nc1ccc(Oc2c(F)c(F)c(C(F)(F)F)c(F)c2F)c(O)c1`, in [9], the result was Active. Also, the Activity in data set [2] and in data set [6] (filed as opener) was 100% each time. In addition, in the data set on Rattus norvegicus [10], the outcome was inactive.
`Oc1cc(NCCCCCN2CCOCC2)ccc1Oc1c(F)c(F)c(C(F)(F)F)c(F)c1F`: the Activity is 23.5 mV in the data set on Oocyte [11]; 24 mV in the data set on Oocyte [12]; 37.9 mV in the data set with Oocyte [13]; 81.3% in [6] (filed as opener); 86.2 mV in the data set on Oocyte [14].
Consider `FC(F)(F)c1cc(NC(=S)Nc2ccc(Br)cc2-c2nnn[nH]2)cc(C(F)(F)F)c1`, for which the figures for the pEC50 in [15], in data set [16] and in data set [17] were 5.15, 5.15 and 6.40, respectively. The fold change (FC) in [3] is 2.3. For the same compound, in data set [6], the Activity turned out to be 14.4%.
The AUC(0-t) is exposure summed from dosing to a finite time, without extrapolation to infinity. As a reminder, the half-life is the time needed for the level to fall by half in the phase considered. Usually bioavailability stands for the share of a dose that reaches the circulation, judged against a reference dose that is usually intravenous. In general, Cmax refers to the maximum level reached in the sampled fluid or tissue. One may read the Tmax as the time at which the peak concentration occurs. Usually clearance stands for a measure of how efficiently the substance is removed, as volume per time. With `Cl.Nc1ccc(Oc2c(F)c(F)c(C(F)(F)F)c(F)c2F)c(O)c1`, the area under the curve AUC(0-t) in data set [18] came to 1450 ng·h/mL; in data set [26] it was 344 ng·h/mL. Further, the half-life in [19] is 4.5 h; in data set [22], 3.9 h. The results for the Activity in the data set on Rattus norvegicus [20], with Rattus norvegicus [25] and in the data set with Rattus norvegicus [28] were 43%, 65% and 48.5%, respectively. Further, the bioavailability in data set [21] turned out to be 23.5%. In addition, in data set [23], the Vd came out at 13.2 L/kg. Also, the highest level in data set [24] (Cmax) was 61.5 ng/mL. In addition, in data set [27], the Tmax was 4.2 h. Further, the clearance in [29] was 115 mL/min/kg.
